The test system of experiment [1] is hGal1. On the set-up: method as in PMID 23124203. Conditions: in the presence of λ5-UR peptide of pre-BCR; cited from earlier work.
For experiment [2], the target named is T1, human galectin-1 (hGal1) (Homo sapiens, UniProt P09382).
T1 construct: the full-length hGal1 (residues 1–135); 6xHis (N); made in house; host or cells: Escherichia coli BL21 (DE3)
The experiment in a line: Fluorescence polarization (FP)-based competition binding assay. Conditions: for Kd: fluorescence anisotropy at 277 K, competition with LN2-FITC probe, read-out: Dissociation constant Kd (Kd FP). As for the experimental part:
(§1) The measurement of FP-based assay is based on the rotation speed of a fluorophore-containing compound bound to the protein counterpart (e.g. galectins in this study). The fluorophore rotates at a slower rate than when it is unbound, and the resulting fluorescence polarization is higher. In this study we carried out all measurements according to reported procedures. […] All the measurements were conducted in Tris buffer (12.5 mM, pH 7.4) with 200 mM NaCl and 5 mM β-mercaptoethanol at 4 °C. Data plotting, nonlinear regression analysis, and curve construction was done by Prism 5.0 software (GraphPad, San Diego, CA).
(§2) The measured anisotropy value with competitor (Acompetitor) is used to calculate the amount of galectin-bound probe [PG] according to equation:
(§3) [PG]=[(Acompetitor−A0)∕(Amax−A0)]×[P]total.−
A general note: In fluorescence polarisation assays a small probe gives low polarisation when free and higher when bound to something large.

The target of the next experiment is T2, human galectin-3 (hGal3) (Homo sapiens, UniProt P17931).
T2 construct: the full-length hGal1 (residues 1–135), 3 (residues 1–250); 6xHis (N); made in house; host or cells: Escherichia coli BL21 (DE3)
The description is as above. Conditions: for Kd: fluorescence anisotropy at 277 K, competition with LN2-FITC probe, read-out: Dissociation constant Kd (Kd FP). As for the experimental part:
as §1, §2, §3

Experiment [3] has as its target T3, human galectin-7 (hGal7) (Homo sapiens, UniProt P47929).
T3 construct: 7 (residues 1–136); 6xHis (C); made in house; host or cells: Escherichia coli BL21 (DE3)
The experiment is described as above. Conditions: for Kd: fluorescence anisotropy at 277 K, competition with LN2-FITC probe, read-out: Dissociation constant Kd (Kd FP). The method, then: as §1, §2, §3

The subject of a further experiment is CRD domain of hGal3. Also noted: method as in PMID 12223272. To be noted: CRD domain used instead of full-length hGal3; LN1 versus LN2; cited from earlier work.
The test system of another experiment is hGal7. On the set-up: method as in PMID 12223272. Conditions: cited from earlier work.
Experiment [4] concerns the target T4, human galectin-3 (hGal3, full-length) (Homo sapiens, UniProt P17931).
T4 construct: the full-length hGal1 (residues 1–135), 3 (residues 1–250); 6xHis (N); made in house; host or cells: Escherichia coli BL21 (DE3)
Nature of the experiment: Biolayer interferometry, LN1/LN2 binding affinity. Conditions: for Kd: Biolayer Interferometry at 300 K, steady-state, read-out: Dissociation constant Kd (Kd BI). The source says: (§4) Using a standard PCR-based cloning strategy, the coding region of the full-length hGal1 (residues 1–135), 3 (residues 1–250), 7 (residues 1–136) and CRD domain of hGal3 (residues 113–250) were generated and inserted into modified pET-15b (hGal1, hGal3 and hGal3-CRD) or pET-28a (hGal7) vector (Novagen) with in-frame N- and C-terminal 6xHis-tag, respectively. QuikChange mutagenesis method (Agilent Technologies) was applied to replace the corresponding codons of residues Glu165 and Arg186 in full-length hGal3 with Ala codon to allow the expression of mutant proteins hGal3-E165A and hGal3-R186A. All the wild type and mutated proteins were produced in Escherichia coli BL21 (DE3), with 0.5 mM IPTG induction for 16 h at 20 °C. Recombinant proteins were purified by Ni^2+-affinity and size-exclusion chromatography to homogeneity. Purified proteins were then stored in gel-filtration buffer (25 mM Tris-HCl pH8.0, 300 mM NaCl and 5 mM β-mercaptoethanol) and concentrated to ~ 4, 20 and 9 mg/ml as determined by the method of Bradford for both Biolayer interferometry experiments and crystallization trials, respectively.
(§5) Specifically, biotinylated galectins were prepared according to the standard protocol (provided by FortéBio), and adjusted to final concentration of 1 μM in assay buffer condition (50 mM Tris-HCl pH 7.5, 300 mM NaCl and 5 mM β-mercaptoethanol). Biotinylated galectins were then immobilized on Super Streptavidin Biosensors (FortéBio, Inc.), while free streptavidin sites on biosensor were then blocked by incubation with biocytin (10 mg/ml) to avoid non-specific interactions. […] Measurements were followed by 120 sec baseline step, 60 sec association step and 200 sec dissociation step. Baseline and dissociation steps were carried out in assay buffer only. All the data were processed and calculated using Fortebio software and the steady-state K d values were derived from equilibrium responses (S1 Fig) and summarized in Table 1. Two additional parallel Super Streptavidin biosensors were coated with biotinylated galectin and biocytin, separately, and only incubated with assay buffer as double reference controls.
For orientation: In BLI a coated tip is dipped into the sample, and binding shifts an interference pattern.

For the next experiment, the target named is T5, hGal3-E165A (Homo sapiens, UniProt P17931, E165A).
T5 construct: the full-length hGal1 (residues 1–135), 3 (residues 1–250); 6xHis (N); made in house; host or cells: Escherichia coli BL21 (DE3)
Nature of the experiment: Biolayer interferometry, LN1/LN2 binding affinity. Conditions: for Reduction of binding affinity of hGal3-E165A: hGal3-E165A versus wild-type hGal3, from Table 1 Kd BI; for Kd: Biolayer Interferometry at 300 K, steady-state, read-out: Dissociation constant Kd (Kd BI).
Source text: as §4, §5

Experiment [5] concerns the target T1, human galectin-1 (hGal1). The experiment in a line: Biolayer interferometry, LN1/LN2 binding affinity. Conditions: for Kd: Biolayer Interferometry at 300 K, steady-state, read-out: Dissociation constant Kd (Kd BI).
Source text: as §4, §5

Experiment [6] addresses T3, human galectin-7 (hGal7). The experiment in a line: Biolayer interferometry, LN1/LN2 binding affinity. To be noted: for Kd: Biolayer Interferometry at 300 K, steady-state, read-out: Dissociation constant Kd (Kd BI).
Source text: as §4, §5

The next experiment deals with T6, hGal3-R186A (Homo sapiens, UniProt P17931, R186A).
T6 construct: the full-length hGal1 (residues 1–135), 3 (residues 1–250); 6xHis (N); made in house; host or cells: Escherichia coli BL21 (DE3)
Nature of the experiment: Biolayer interferometry, LN1/LN2 binding affinity. To be noted: hGal3-R186A mutant.
Source text: as §4, §5

For experiment [7], the system named is hGal1. Also noted: method as in PMID 12223272. To be noted: LN1 versus LN2; cited from earlier work.
A further experiment deals with rat galectin-2. On the set-up: method as in PMID 12223272. To be noted: cited from earlier work.
The subject of a further experiment is hGal3. On the set-up: method as in PMID 21949831. To be noted: cited from earlier work.
Experiment [8] has as its system hGal1. Also noted: method as in PMID 21949831. To be noted: cited from earlier work.
The mark [9] stands for this setting: based on Kd FP values, LN1 versus LN2.
Where [10] appears, read: based on Kd BI values, LN1 versus LN2.

Molecules are shown by their SMILES. Where “and” joins values, the source holds several entries; their conditions need not be identical. Equal values may be shown once.

T2 sequence (P17931 whole entry, the tested form may be a part): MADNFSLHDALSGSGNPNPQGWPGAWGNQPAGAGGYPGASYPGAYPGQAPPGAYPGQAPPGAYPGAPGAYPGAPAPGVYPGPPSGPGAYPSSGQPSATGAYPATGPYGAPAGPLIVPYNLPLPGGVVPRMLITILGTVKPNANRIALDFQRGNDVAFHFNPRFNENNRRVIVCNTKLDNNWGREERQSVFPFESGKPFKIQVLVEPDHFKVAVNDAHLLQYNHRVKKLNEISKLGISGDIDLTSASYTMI
T4 sequence (P17931 whole entry, the tested form may be a part): as above
T1 sequence (P09382 whole entry, the tested form may be a part): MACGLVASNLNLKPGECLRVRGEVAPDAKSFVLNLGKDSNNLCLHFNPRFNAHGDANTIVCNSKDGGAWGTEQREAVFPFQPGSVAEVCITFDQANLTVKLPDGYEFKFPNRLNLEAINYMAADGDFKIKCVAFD
T3 sequence (P47929 whole entry, the tested form may be a part): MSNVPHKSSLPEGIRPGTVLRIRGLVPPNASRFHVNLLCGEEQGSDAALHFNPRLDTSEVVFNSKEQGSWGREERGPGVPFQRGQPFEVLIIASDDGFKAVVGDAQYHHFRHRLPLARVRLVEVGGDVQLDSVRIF
T5 sequence (P17931 whole entry E165A, the tested form may be a part): as the sequence (P17931 whole entry, the tested form may be a part) above, with E165A counted along it
T6 sequence (P17931 whole entry R186A, the tested form may be a part): as the sequence (P17931 whole entry, the tested form may be a part) above, with R186A counted along it

Take `CC(=O)N[C@H]1[C@H](O[C@H]2[C@@H](O)[C@@H](CO)O[C@@H](O[C@H]3[C@H](O)[C@@H](O)C(O)O[C@@H]3CO)[C@@H]2O)O[C@H](CO)[C@@H](O[C@@H]2O[C@H](CO)[C@H](O)[C@H](O)[C@H]2O)[C@@H]1O` (mixture of isomers) [Lacto-N-neotetraose (LNnT), Lacto-N-neotetraose]: the “Decrease of hGal1 binding” value in the experiment with hGal1 [1] was 3 fold.
With `CC(=O)NC1C(O)OC(CO)C(O)C1OC1OC(CO)C(O)C(O)C1O` (stereo not shown) [LN1, Galβ1-3GlcNAc], the “LN1/LN2 ratio (Kd LN1/Kd LN2)” value at human galectin-1 (hGal1) [2] (setting [9]) is 0.53; at human galectin-3 (hGal3) (setting [9]), 0.23; on human galectin-7 (hGal7) [3] (setting [9]), 2.97; in experiment [4] (setting [10]) it was 0.35; on hGal3-E165A (hGal3-E165A, based on Kd BI values, LN1 versus LN2) it was 1.22 and 1.22 ^2; at human galectin-1 (hGal1) [5] (setting [10]), 0.44. For the same compound, on human galectin-7 (hGal7) [6] (setting [10]), the “LN1/LN2 ratio (Kd LN1/Kd LN2)” value is given as 1.52. The equilibrium dissociation constant (Kd) (usually the constant that tells how readily two partners part at equilibrium) at human galectin-1 (hGal1) [2] was 6.74 µM; on human galectin-3 (hGal3) it was 1.44 µM; at human galectin-7 (hGal7) [3], 6.6 µM and 6.63 µM; in experiment [4] it was ~93 µM and 93 µM; on hGal3-E165A (hGal3-E165A), 230 µM; on human galectin-1 (hGal1) [5], ~340 µM and 340 µM. The Kd on human galectin-7 (hGal7) [6] is ~270 µM and 270 µM. For the same compound, the “LN1/LN2 ratio, previous study” value with CRD domain of hGal3 is listed as 0.65 ^5; in the experiment with hGal7 (LN1 versus LN2), 2.7; with hGal1 [7], 0.79. The LN1/LN2 binding preference entry in the experiment on hGal7 and with rat galectin-2 was “prominent LN1-preferred binding activity” each time. Moreover, the “Reduction of binding affinity of hGal3-E165A” value on hGal3-E165A is 2.5 fold. In addition, the Binding ability result on hGal3-R186A is given as “lose its binding ability”.
For `CC(=O)N[C@@H]1[C@@H](O)[C@H](O[C@@H]2O[C@H](CO)[C@H](O)[C@H](O)[C@H]2O)[C@@H](CO)O[C@H]1O` [LN2, Galβ1-4GlcNAc], the dissociation constant Kd was 3.59 µM at human galectin-1 (hGal1) [2]; 0.33 µM at human galectin-3 (hGal3); 19.7 µM on human galectin-7 (hGal7) [3]; ~33 µM and 33 µM in experiment [4]; 280 µM at hGal3-E165A (hGal3-E165A); 150 µM on human galectin-1 (hGal1) [5]. The Kd on human galectin-7 (hGal7) [6] is ~410 µM and 410 µM. At hGal3-E165A, the “Reduction of binding affinity of hGal3-E165A” value was 8.5 fold. In addition, at hGal3-R186A, the Binding ability result is listed as “lose its binding ability”.
`CC(=O)N[C@H]1C(O)O[C@H](CO)[C@H](O)[C@@H]1O[C@@H]1O[C@H](CO)[C@H](O)[C@H](O)[C@H]1O` (stereo partly shown) [TF antigen, Galβ1-3GalNAc]: the “Binding with TF antigen” value was “binds” with hGal3 and “not” in the experiment on hGal1 [8].
In the case of `CC(=O)N[C@H]1[C@H]([C@H](O)[C@H](O)CO)O[C@@](O[C@H]2[C@@H](O)[C@@H](CO)O[C@@H](O[C@H]3[C@H](O)[C@@H](NC(C)=O)C(O)O[C@@H]3CO)[C@@H]2O)(C(=O)O)C[C@@H]1O` (stereo partly drawn) [α3-SiaLacNAc], the “Increase of hGal1 binding” value with hGal1 [1] is 10 fold.

The values are drawn from PMC4422656, “Structural Basis Underlying the Binding Preference of Human Galectins-1, -3 and -7 for Galβ1-3/4GlcNAc” (PLoS ONE, 2015).
